Data from US20090203145A1, “METHODS FOR ANALYSIS OF VITAMINS” (priority 2008, published 2009).

Test system: specific bacteria
Experiment: Microbiological method for B6 (Official Method 961.15, Modified): signal response of similar molecules
Type: cell-based
Conditions: microbiological B6 assay; for Signal Response in Microbiological Method: Response, %: B6 (pyridoxine) given as 100; for response in microbiological method compared with B6: statement in words
Text: The often low concentrations of vitamins in foods can make measuring the level of vitamins in various foods difficult. For example, the low concentration of B vitamins in infant formula makes it difficult to be measured by traditional measurement techniques such as HPLC. Currently, microbiological methods for measuring B vitamins are widely used at laboratories. This method is based on the growth of specific bacteria in the presence of a specific B vitamin and can only be measured one analyte per assay. The analysis process may take more than 30 hours. Poor reproducibility is another disadvantage. It is not unusual for a bacterial response to vary with different compounds and show low specificity. Monitoring different chemical forms. Current microbiological method have less specificity, such as those described in Official Method 961.15 (Modified), Official Methods of Analysis of AOAC International, 17th ed., AOAC International, Gaithersburg Md. (2000). In the case of B6, for example, other similar molecules may have a similar response. […] However, these compounds can be distinguished by LC/MS/MS without any problem in real samples such as milk.

With `Cc1ncc(CO)c(CN)c1O` [Pyridoxamine, pyridoxamine] the “Signal Response in Microbiological Method: Response, %” value was 84% and the “response in microbiological method compared with B6” value was “response as strong as B6”.

`Cc1ncc(CO)c(CO)c1O` [B6, pyridoxine, pyridoxine] was tested, and the “Signal Response in Microbiological Method: Response, %” value was 100%.

For `Cc1ncc(CO)c(C=O)c1O` [Pyridoxal, pyridoxal], the “Signal Response in Microbiological Method: Response, %” value was 112% and the “response in microbiological method compared with B6” value was “response as strong as B6”.

In the case of `Cc1ncc(CO)c(C(=O)O)c1O` [Pyridoxic acid, 4-pyridoxic acid], the “Signal Response in Microbiological Method: Response, %” value is reported as 0%.
